{"source": "patent US20120077685A1", "about": "“INTRATUMORAL GENE EXPRESSION LEVELS OF TP AND VEGF ARE ASSOCIATED WITH CLINICAL OUTCOMES IN RECTAL CANCER PATIENTS TREATED WITH 5-FLUOROURACIL AND PELVIC RADIATION” (University of Southern California, priority 2010, published 2012)", "key": {"[1]": {"tested_on": "stage II/III rectal cancer", "details": "neo-adjuvant or adjuvant 5-FU and radiation therapy; cited from earlier work"}, "[2]": {"tested_on": "stage II/III rectal cancer", "assay": "Phase III trial (INT-0144, S9304) of 5-FU and radiation: disease-free survival by intratumoral gene expression tertile", "format": "in vivo, human", "experimental": "Methods: A total of 422 stage II/III rectal patients from a phase III trial (INT-0144, […]) of three regimens of 5-FU and radiation were available for gene expression assays. mRNA was extracted from laser-capturemicrodissected tumor tissue. cDNA was prepared by reverse transcription and quantitation of the candidate genes was performed using a fluorescence-based real-time detection method. The gene expression data were analyzed by splitting the expression data into three (tertiles) groups using 33rd and 66th percentile."}}, "data": [{"smiles": "O=c1[nH]cc(F)c(=O)[nH]1", "note": "[5-FU, 5-fluorouracil]", "values": [{"measurement": "overall 5-year survival rate", "setting": "[1]", "result": "approximately 50%"}, {"measurement": "three year DFS", "setting": "[2]; patients with high TP gene expression (tertile)", "result": 79, "unit": "%"}, {"measurement": "three year DFS", "setting": "[2]; patients with high VEGF gene expression (tertile)", "result": 65, "unit": "%"}, {"measurement": "three year DFS", "setting": "[2]; patients with low TP gene expression (tertile)", "result": 65, "unit": "%"}, {"measurement": "three year DFS", "setting": "[2]; patients with low VEGF gene expression (tertile)", "result": 77, "unit": "%"}, {"measurement": "three year DFS", "setting": "[2]; patients with median TP gene expression (tertile)", "result": 67, "unit": "%"}, {"measurement": "three year DFS", "setting": "[2]; patients with median VEGF gene expression (tertile)", "result": 69, "unit": "%"}]}]}
